Several values for one entry are separate records, joined by “and”; a condition that tells them apart may be missing. Identical values can stand only once. Entries after “also recorded” stand apart in the source; their conditions may differ.
Tests used:
[1] = test system: Infectious Canine Tracheobronchitis (ICT) or Kennel Cough; format: in vivo, dog; details: for Clinical course (Days to Recover): racing greyhounds Miami, oral antibiotic plus cough suppressant, no Tamiflu, 5 days
[2] = test system: canine parvoviral enteritis; assay: Canine parvoviral enteritis clinical cases: treatment and prevention with oral Tamiflu; format: in vivo, dog; details: for Outcome of exposed dogs (Days to Recover): exposed - preventive, Tamiflu 1 mg/lb once a day (AM) for 5 days
Experimental: Table 3 represents 28 Chihuahua dogs and puppies that experienced an outbreak of canine parvoviral enteritis within their kennel. The initial treatment lasted one week and was consistent with traditional therapy. (IV fluids, antibiotics and antiemetics). During the first week, 9 puppies died and a second veterinarian was consulted.
The second veterinarian removed all IV treatment and started oral Tamiflu and AmoxiDrops on 11 puppies. This treatment was administered by the kennel staff with the veterinarian consulting by phone.
The exposed dogs received 1 mg/lb of Tamiflu once a day for 5 days.
Table 4 represents of 25 cocker spaniel dogs and puppies that experienced an outbreak of canine parvoviral enteritis within their kennel. The initial treatment lasted one week and was consistent with traditional therapy consisting of IV fluids and antibiotics, antiemetics and steroids. During this period of time, 9 puppies died, and a second veterinarian was consulted.
The second veterinarian removed all IV treatment and oral Tamiflu and sulfadimethoxine/ormetoprim (antibiotic) were the only drugs administered to 11 of the puppies. The 12th puppy was taken to the veterinarian's clinic and received IV therapy. Those puppies remaining at the kennel were treated by the kennel staff.
Table 5 represents 48 individual cases of Canine Parvoviral Enteritis treated with 1 mg/lb Tamiflu AM/PM for 10 treatments. Cases posted VIN's Infectious Dz Board by 20 veterinarians practicing in 15 states.

[3] = test system: Feline Parvoviral Enteritis; assay: Feline parvoviral enteritis cases: treatment and prevention with Tamiflu; format: in vivo, cat
Experimental: Table 6 represents 5 cases of Feline Parvoviral Enteritis with Tamiflu at 1 mg/lb AM/PM for 10 treatments.

[4] = test system: Raccoon Parvoenteritis/Distemper; assay: Raccoon parvoenteritis/distemper treated with Tamiflu; format: in vivo; details: raccoons, Tamiflu 1 mg/lb every 12 hrs for 10 treatments, no IV drugs
Experimental: Table 7 represents 5 raccoons treated with Tamiflu at 1 mg/lb given every 12 hrs for 10 treatments. Treatment administered by civilian rehabbers at their homes. Granules mixed with pancake syrup.
Raccoons represent the 5th species (cow, dog, cat, mice) in which a neuraminidase inhibitor has been successful in treating or preventing a disease associated with neuramimidase dependent bacteria. Before using Tamiflu, the hemorrhagic gastroenteritis (Parvo) in raccoon was 100% fatal. […] Treatment was administered by untrained lay personnel at the rehab centers.

[5] = test system: E. coli; assay: Clinical Trial: Tamiflu and E. coli (case Pinga, Table 16); format: in vivo, feline; details: for Clinical response: case Pinga, acute vomiting and hematuria, endotoxic condition
Experimental: In Table 16, E. coli, a neuraminidase dependent bacteria, was cultured from Pinga's urine following an acute onset of vomiting and hematuria. […] 24, 2005 when […] presented in an endotoxic condition.

In the case of `CC1=C(C(=O)O)N2C(=O)[C@@H](NC(=O)[C@H](N)c3ccccc3)[C@H]2SC1` [Cephalexin], the “Clinical course (Days to Recover)” value [1] is reported as “No Change”.
With `C[C@H]1c2cccc(O)c2C(O)=C2C(=O)[C@]3(O)C(O)=C(C(N)=O)C(=O)[C@@H](N(C)C)[C@@H]3[C@@H](O)[C@@H]21` [Doxy] the “Clinical course (Days to Recover)” value [1] was “No Change”.
In the case of `CCOC(=O)C1=C[C@@H](OC(CC)CC)[C@H](NC(C)=O)[C@@H](N)C1` [Tamiflu, oseltamivir], the “Days to Recover” value ([2]; Chihuahua kennel puppies, Tamiflu 1 mg/lb AM/PM oral with AmoxiDrops, no IV drugs) is reported as 5 days and 3 days, the Survival of puppies ([2]; Chihuahua kennel, 11 puppies, oral Tamiflu and AmoxiDrops) is reported as “All puppies survived” and the “Outcome of exposed dogs (Days to Recover)” value ([2]; Chihuahua kennel) is reported as “remained healthy”. For the same compound, the “Days to Recover” value ([2]; Sandcastle Kennels cocker puppies, Tamiflu 1 mg/lb AM/PM oral with sulfadimethoxine/ormetoprim) was 3 days and 5 days and 4 days, the “Outcome of exposed dogs (Days to Recover)” value ([2]; Sandcastle Kennels) was “did not develop canine parvoviral enteritis; also recorded: Healthy” and the “Outcome of exposed dog (Days to Recover)” value ([2]; Table 5, exposed puppy, weak parvo test, Tamiflu 1 mg/lb AM/PM) was “Normal”. The “Days to Recover” value ([3]; cats, Tamiflu 1 mg/lb AM/PM for 10 treatments, with IV drugs or SQ fluids) was 4 days and 2 days and 3 days, the “Outcome of exposed kitten (Days to Recover)” value ([3]; exposed kitten, Tamiflu 1 mg/lb once a day (AM) for 5 days) was “remained normal” and the “Days to Recover” value [4] was 3 days. For the same compound, the “Days to Recover” value ([1]; kennel cough, Tamiflu 1 mg/lb AM/PM, with or without oral antibiotic, no cough suppressant) was 3 to 5 days, the “Illness in holding kennels under herd health program” value ([1]; sick dogs 1 mg/lb AM/PM 5 days, others and new puppies 1 mg/lb once a day for 5 days) was “below 5%” and the Clinical response ([5]; E. coli cultured from urine) was “dramatic reversal”. For the same compound, the Observations ([5]; cat Pinga, E. coli cultured from urine, at 2nd treatment, Nov. 24, 2004 5:35 PM, Tamiflu 12 mg PO (1 mg/lb), with Zeniquin) was “Pinga is more alert and has not vomited”, the Temp ([5]; cat Pinga, at 3rd treatment, Nov. 25, 2004) was 99.5 F and the Temp ([5]; cat Pinga, at 4th treatment, Nov. 25, 2004) was 98.9 F. The Observations ([5]; cat Pinga, at 4th treatment, Nov. 25, 2004 5:30 PM, Tamiflu 12 mg PO) was “Urinated, was normal yellow color . . . has”, the Temp ([5]; cat Pinga, at 5th treatment, Nov. 26, 2004) was 98.8 F and the Observations ([5]; cat Pinga, at 5th treatment, Nov. 26, 2004 10:30 AM, Tamiflu 12 mg PO, with Zeniquin) was “exam is normal”. For the same compound, the Temp ([5]; cat Pinga, at 6th treatment, Nov. 26, 2004) was 100.6 F, the Observations ([5]; cat Pinga, at 6th treatment, Nov. 26, 2004 5 PM, Tamiflu 12 mg PO) was “Urinated normal urine . . . passed 3 small” and the Temp ([5]; cat Pinga, at 7th treatment, Nov. 27, 2004) was 98.8 F. For the same compound, the Observations ([5]; cat Pinga, at 7th treatment, Nov. 27, 2004 10:30 AM, Tamiflu 12 mg PO, with Zeniquin) was “more alert . . . began to eat Wellness dry”, the Temp ([5]; cat Pinga, at 9th treatment, Nov. 28, 2004) was 100.1 F and the Observations ([5]; cat Pinga, at 9th treatment, Nov. 28, 2004 10:30 AM, Tamiflu 12 mg PO, with Zeniquin) was “almost “normal” . . . maybe weak in rear”. For the same compound, the Observations ([5]; cat Pinga, at 10th (last) treatment, 5:30 PM, Tamiflu 12 mg PO) was “Pinga appears to be normal . . . this is his”.
`CN1CCN(c2c(F)cc3c(=O)c(C(=O)O)cn4c3c2OCN4C)CC1` [Zeniquin] was tested, and the Clinical response ([5]; E. coli cultured from urine) was “failed to respond” and the “Clinical course under antibiotic therapy (Medical History)” value ([5]; cat Pinga, Zeniquin 12.5 mg/day PO from Nov. 22 to Nov. 24, 2004, before Tamiflu) was “had gotten progressively worse over the course of antibiotic therapy, and now appeared to be approaching”.

Reference: US7910620B2, “Uses of neuraminidase inhibitors in infectious diseases” (priority 2005, dated 2011)
